Key:
[1] = human, in vivo
advanced breast cancer = conditions: heavily pretreated advanced breast cancer; cited from earlier work
glioblastoma multiforme = conditions: two trials in glioblastoma multiforme; cited from earlier work
clinical [2] = conditions: human, in vivo, AUC(0–24h)
mantle cell lymphoma = conditions: phase II, single agent; cited from earlier work
[3] = human, in vivo; remark: listed apart in the source
[4] = cited from earlier work
clinical [5] = conditions: human, in vivo, AUC(0–24h); remark: listed apart in the source

CCOc1cc2ncc(C#N)c(Nc3ccc(F)c(Cl)c3)c2cc1NC(=O)/C=C/CNC [N-desmethyl EKB-569]
AUC(0–24h), Day 6 [1]: 52.7 ± 61.2 ng·h/mL
AUC(0–24h), Day 7 [1]: 60.8 ± 52.8 ng·h/mL
AUC(0–24h), Day 9 [1]: 75.2 ± 51.0 ng·h/mL

CO[C@H]1C[C@@H]2CC[C@@H](C)[C@@](O)(O2)C(=O)C(=O)N2CCCC[C@H]2C(=O)O[C@H]([C@H](C)C[C@@H]2CC[C@@H](OC(=O)C(C)(CO)CO)[C@H](OC)C2)CC(=O)[C@H](C)/C=C(\C)[C@@H](O)[C@@H](OC)C(=O)[C@H](C)C[C@H](C)/C=C/C=C/C=C/1C [temsirolimus]
Partial response rate (advanced breast cancer): 9.2%
TTP (glioblastoma multiforme): 9–38 weeks
AUC(0-t) (clinical [2]; Day 3): 68.3 ± 20.4 ng·h/mL
AUC(0-t) (clinical [2]; po, 30 mg, Day 1): 83.9 ± 27.6 ng·h/mL
Median TTP (mantle cell lymphoma): 6 months
Overall response rate (mantle cell lymphoma): 38–41%
Change of AUC(0-24h) on Day 15 compared to day 1 [3]: 66%

CO[C@H]1C[C@@H]2CC[C@@H](C)[C@@](O)(O2)C(=O)C(=O)N2CCCC[C@H]2C(=O)O[C@H]([C@H](C)C[C@@H]2CC[C@@H](O)[C@H](OC)C2)CC(=O)[C@H](C)/C=C(\C)[C@@H](O)[C@@H](OC)C(=O)[C@H](C)C[C@H](C)/C=C/C=C/C=C/1C [sirolimus]
AUC(0-t) (clinical [2]; Day 3): 437 ± 116 ng·h/mL
AUC(0-t) (clinical [2]; po, 30 mg, Day 1): 348 ± 158 ng·h/mL
Accumulation: AUC(0–24h) Day 3/Day 1 [3]: 1.37±0.44
Accumulation: AUC(0–24h) Day 15/Day 1 [3]: 0.99±0.27
Accumulation: AUC(0–24h) Day 17/Day 3 [3]: 1.78±0.63
Change of AUC(0-24h) on Day 15 compared to day 1 [3]: similar

CCOc1cc2ncc(C#N)c(Nc3ccc(F)c(Cl)c3)c2cc1NC(=O)/C=C/CN(C)C [EKB-569]
MTD, single agent ([4]; advanced solid tumors, DLT grade 3 diarrhea): 75 mg daily
Recommended dose in combination with FOLFIRI ([4]; in vivo): 25 mg daily
AUC(0-t) (clinical [5]; Day 6): 378 ± 144 ng·h/mL
AUC(0-t) (clinical [5]; Day 7): 426 ± 127 ng·h/mL
AUC(0-t) (clinical [5]; Day 9): 493 ± 112 ng·h/mL
Accumulation: AUC(0–24h) Day 6/Day 1 [1]: 1.78±0.56
Accumulation: AUC(0–24h) Day 7/Day 6 [1]: 1.19±0.28
Accumulation: AUC(0–24h) Day 9/Day 6 [1]: 1.40±0.33
Increase of AUC(0-24h) on Day 7 [1]: about 19%
